The text below walks through data of ChEMBL document CHEMBL3991601, “The target landscape of clinical kinase drugs” (Science, 2017).

The target in experiment [1] is Cyclin-dependent kinase 4 (Homo sapiens, UniProt P11802).
Experiment [2] addresses NADH dehydrogenase [ubiquinone] 1 alpha subcomplex subunit 13 (Homo sapiens, UniProt Q9P0J0).
In experiment [3] the target is T1, Serine/threonine-protein kinase Nek9 (Homo sapiens, UniProt Q8TD19).
T1 sequence (Q8TD19 whole entry): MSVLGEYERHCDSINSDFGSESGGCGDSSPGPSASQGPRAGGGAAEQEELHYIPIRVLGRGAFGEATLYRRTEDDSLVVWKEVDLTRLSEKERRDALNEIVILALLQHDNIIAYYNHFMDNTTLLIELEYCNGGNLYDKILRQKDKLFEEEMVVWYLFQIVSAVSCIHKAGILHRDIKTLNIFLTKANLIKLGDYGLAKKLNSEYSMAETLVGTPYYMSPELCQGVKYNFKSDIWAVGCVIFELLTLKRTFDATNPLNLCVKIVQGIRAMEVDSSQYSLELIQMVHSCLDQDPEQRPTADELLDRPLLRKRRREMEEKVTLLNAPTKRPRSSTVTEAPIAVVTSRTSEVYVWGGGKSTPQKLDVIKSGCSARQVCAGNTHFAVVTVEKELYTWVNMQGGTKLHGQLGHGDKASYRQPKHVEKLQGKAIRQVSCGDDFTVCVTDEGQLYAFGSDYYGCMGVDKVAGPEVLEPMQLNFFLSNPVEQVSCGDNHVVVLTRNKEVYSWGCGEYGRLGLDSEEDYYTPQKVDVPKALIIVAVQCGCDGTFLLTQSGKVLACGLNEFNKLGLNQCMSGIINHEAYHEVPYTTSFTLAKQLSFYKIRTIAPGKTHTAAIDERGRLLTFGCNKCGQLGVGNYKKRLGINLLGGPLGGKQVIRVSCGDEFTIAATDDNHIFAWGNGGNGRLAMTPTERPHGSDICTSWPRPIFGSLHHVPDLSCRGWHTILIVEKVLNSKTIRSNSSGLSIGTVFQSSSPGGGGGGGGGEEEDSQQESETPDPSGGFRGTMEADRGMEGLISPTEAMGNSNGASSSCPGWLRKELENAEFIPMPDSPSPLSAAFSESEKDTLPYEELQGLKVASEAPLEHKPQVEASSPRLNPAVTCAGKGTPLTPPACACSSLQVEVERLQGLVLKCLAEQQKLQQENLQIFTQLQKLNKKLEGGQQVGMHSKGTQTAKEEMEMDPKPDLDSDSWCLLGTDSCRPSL

In the next experiment the target is T2, Pyridoxal kinase (Homo sapiens, UniProt O00764).
T2 sequence (O00764 whole entry): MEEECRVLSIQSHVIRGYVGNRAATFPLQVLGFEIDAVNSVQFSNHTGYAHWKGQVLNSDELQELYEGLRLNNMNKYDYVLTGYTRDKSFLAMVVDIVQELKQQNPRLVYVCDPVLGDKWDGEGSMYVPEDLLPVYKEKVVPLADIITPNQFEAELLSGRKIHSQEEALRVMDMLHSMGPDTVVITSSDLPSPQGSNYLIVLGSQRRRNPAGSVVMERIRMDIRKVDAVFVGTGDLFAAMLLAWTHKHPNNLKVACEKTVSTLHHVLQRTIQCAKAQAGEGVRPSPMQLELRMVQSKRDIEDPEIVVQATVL

For experiment [4], the target named is T3, Membrane-associated tyrosine- and threonine-specific cdc2-inhibitory kinase (Homo sapiens, UniProt Q99640).
T3 sequence (Q99640 whole entry): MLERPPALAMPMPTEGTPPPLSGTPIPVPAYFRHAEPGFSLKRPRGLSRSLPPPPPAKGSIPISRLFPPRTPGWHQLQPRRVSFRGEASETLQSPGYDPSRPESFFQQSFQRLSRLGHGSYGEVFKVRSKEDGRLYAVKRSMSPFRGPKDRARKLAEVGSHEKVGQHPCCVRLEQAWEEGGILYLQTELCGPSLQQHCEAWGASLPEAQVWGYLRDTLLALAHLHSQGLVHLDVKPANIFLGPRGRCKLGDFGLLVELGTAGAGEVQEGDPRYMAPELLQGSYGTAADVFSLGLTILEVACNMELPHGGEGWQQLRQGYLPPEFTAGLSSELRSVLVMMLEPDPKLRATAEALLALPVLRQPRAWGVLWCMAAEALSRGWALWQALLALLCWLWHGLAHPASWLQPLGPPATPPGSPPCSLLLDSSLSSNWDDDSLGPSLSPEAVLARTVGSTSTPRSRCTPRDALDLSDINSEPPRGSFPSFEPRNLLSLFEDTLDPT

Experiment [5] addresses T4, Exosome RNA helicase MTR4 (Homo sapiens, UniProt P42285).
T4 sequence (P42285 whole entry): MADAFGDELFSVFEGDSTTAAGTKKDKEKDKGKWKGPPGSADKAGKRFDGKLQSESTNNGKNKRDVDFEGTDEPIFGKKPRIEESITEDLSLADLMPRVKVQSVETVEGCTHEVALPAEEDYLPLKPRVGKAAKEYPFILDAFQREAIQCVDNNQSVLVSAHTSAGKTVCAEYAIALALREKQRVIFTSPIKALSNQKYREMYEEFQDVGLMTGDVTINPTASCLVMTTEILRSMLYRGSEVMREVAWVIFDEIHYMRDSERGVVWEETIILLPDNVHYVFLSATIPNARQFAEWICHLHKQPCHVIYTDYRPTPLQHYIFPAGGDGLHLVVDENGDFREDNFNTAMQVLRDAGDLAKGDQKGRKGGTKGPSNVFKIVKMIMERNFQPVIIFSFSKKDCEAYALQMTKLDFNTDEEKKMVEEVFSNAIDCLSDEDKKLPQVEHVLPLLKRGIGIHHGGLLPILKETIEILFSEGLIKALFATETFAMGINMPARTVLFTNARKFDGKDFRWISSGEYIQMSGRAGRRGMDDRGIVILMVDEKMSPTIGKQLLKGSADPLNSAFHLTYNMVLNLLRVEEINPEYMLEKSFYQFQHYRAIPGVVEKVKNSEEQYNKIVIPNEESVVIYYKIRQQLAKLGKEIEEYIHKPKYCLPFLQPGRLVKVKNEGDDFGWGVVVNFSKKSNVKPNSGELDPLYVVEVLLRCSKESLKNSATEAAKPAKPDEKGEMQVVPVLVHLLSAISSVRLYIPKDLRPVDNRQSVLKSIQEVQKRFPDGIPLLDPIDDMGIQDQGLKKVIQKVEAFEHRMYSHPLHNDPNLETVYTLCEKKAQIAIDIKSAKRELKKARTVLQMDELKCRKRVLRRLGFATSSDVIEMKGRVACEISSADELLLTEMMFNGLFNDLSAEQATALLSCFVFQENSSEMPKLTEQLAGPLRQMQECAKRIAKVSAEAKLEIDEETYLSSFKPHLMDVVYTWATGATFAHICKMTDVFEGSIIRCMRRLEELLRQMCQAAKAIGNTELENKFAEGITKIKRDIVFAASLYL

The target in experiment [6] is TRAF2 and NCK-interacting protein kinase (Homo sapiens, UniProt Q9UKE5).
Sequence of TRAF2 and NCK-interacting protein kinase (Q9UKE5 whole entry): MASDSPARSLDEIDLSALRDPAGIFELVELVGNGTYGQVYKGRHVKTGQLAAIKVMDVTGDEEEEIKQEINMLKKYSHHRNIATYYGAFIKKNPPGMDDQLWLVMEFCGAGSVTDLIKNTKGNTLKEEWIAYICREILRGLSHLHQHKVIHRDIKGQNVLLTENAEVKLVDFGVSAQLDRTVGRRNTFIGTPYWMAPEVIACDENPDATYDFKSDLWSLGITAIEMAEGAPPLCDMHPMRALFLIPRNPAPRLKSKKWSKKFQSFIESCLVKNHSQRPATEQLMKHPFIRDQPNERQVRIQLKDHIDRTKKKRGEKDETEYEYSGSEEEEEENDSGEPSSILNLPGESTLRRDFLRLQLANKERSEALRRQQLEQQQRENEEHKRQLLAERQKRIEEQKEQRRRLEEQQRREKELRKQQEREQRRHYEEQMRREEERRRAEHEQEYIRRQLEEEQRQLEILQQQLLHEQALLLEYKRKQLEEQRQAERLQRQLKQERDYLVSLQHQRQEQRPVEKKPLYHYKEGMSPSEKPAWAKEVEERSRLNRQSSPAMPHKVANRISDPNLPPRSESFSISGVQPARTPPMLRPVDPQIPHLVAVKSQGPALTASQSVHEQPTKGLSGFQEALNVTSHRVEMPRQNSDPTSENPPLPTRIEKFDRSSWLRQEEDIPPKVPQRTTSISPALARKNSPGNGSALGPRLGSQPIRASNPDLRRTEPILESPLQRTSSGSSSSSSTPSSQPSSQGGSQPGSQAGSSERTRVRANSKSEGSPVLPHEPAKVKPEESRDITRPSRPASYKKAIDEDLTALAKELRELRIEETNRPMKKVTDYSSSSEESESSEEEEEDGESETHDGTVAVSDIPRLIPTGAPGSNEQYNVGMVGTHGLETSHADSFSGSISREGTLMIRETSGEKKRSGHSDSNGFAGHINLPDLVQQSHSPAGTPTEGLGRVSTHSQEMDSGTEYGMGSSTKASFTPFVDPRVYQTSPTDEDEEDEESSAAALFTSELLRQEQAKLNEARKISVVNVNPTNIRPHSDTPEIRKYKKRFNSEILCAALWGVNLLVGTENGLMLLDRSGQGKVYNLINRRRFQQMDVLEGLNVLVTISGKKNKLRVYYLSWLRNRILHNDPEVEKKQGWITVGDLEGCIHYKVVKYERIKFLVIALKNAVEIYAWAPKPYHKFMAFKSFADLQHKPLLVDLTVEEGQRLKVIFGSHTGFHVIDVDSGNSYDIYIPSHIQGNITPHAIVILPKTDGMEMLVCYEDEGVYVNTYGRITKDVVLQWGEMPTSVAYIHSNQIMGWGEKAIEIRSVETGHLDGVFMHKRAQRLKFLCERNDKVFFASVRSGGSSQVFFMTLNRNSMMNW

Calls of active or inactive are those of the source.
Also: in the data inactive means no Kd found up to 30 µM.

Sequence of NADH dehydrogenase [ubiquinone] 1 alpha subcomplex subunit 13 (Q9P0J0 whole entry, one chain of several): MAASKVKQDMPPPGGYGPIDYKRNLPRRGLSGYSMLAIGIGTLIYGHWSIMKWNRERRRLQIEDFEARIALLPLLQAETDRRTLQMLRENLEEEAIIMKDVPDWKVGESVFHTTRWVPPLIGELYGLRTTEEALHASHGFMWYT
Sequence of Cyclin-dependent kinase 4 (P11802 whole entry): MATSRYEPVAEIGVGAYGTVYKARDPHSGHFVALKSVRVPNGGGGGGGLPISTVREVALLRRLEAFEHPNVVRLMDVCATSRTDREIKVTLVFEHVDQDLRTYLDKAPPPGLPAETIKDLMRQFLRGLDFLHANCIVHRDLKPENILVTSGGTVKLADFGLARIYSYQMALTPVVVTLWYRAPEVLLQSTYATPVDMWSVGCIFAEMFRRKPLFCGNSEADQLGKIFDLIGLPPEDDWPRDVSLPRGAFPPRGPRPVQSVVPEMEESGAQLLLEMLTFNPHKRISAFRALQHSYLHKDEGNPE

By Kd is commonly meant the constant that tells how readily two partners part at equilibrium. In the case of `C[C@@H]1CN(Cc2ccc(F)cc2)[C@@H](C)CN1C(=O)c1cc2c(C(=O)C(=O)N(C)C)cn(C)c2cc1Cl` [TALMAPIMOD], the Kd (in experiment [1]; in experiment [2]; in experiment [3]; at Pyridoxal kinase; in experiment [4]; in experiment [5]) was > 30 µM (inactive) in each case. Further, in experiment [6], the Kd is > 30 µM (inactive).
`O=C(Nc1ccc(-c2ccnc(Nc3ccc(N4CCOCC4)cc3)n2)cc1)C1CCCN1` (stereo not drawn) [XL-019]: the Kd in experiment [1] is > 30 µM (inactive); in experiment [2] it was > 30 µM (inactive); in experiment [3] it was 2.19 µM (active); on Pyridoxal kinase, > 30 µM (inactive); in experiment [4], > 30 µM (inactive); in experiment [5] it was > 30 µM (inactive). Besides, the Kd in experiment [6] was > 30 µM (inactive).
`CN1CCC(COc2cnc(-c3cccc(Cn4nc(-c5cccc(C#N)c5)ccc4=O)c3)nc2)CC1` [TEPOTINIB]: the Kd (in experiment [1]; in experiment [2]; in experiment [3]; at Pyridoxal kinase; in experiment [4]; in experiment [5]) was > 30 µM (inactive) throughout. Moreover, the Kd in experiment [6] is > 30 µM (inactive).
As for `COc1cc2nccc(Oc3ccc(NC(=O)NC4CC4)c(Cl)c3)c2cc1C(N)=O` [LENVATINIB], the Kd (in experiment [1]; in experiment [2]; in experiment [3]; at Pyridoxal kinase; in experiment [4]; in experiment [5]) was > 30 µM (inactive) each time. Besides, in experiment [6], the Kd is 0.565 µM (active).
Regarding `CCn1c(=O)c(-c2cc[nH]n2)cc2c(C)nc(N)nc21` [VOXTALISIB], the Kd (in experiment [1]; in experiment [2]; in experiment [3]; at Pyridoxal kinase; in experiment [4]; in experiment [5]) was > 30 µM (inactive) throughout. Also, the Kd in experiment [6] was > 30 µM (inactive).
As to `Cn1cc(-c2ccc(F)c(C(F)(F)F)c2)nc1C1CCN(c2ncnc3[nH]ncc23)CC1` [LY-2584702], the Kd (in experiment [1]; in experiment [2]; in experiment [3]; on Pyridoxal kinase; in experiment [4]; in experiment [5]) was > 30 µM (inactive) each time. For the same molecule, the Kd in experiment [6] is > 30 µM (inactive).
For `Cc1cc2c(F)c(Oc3ncnn4cc(OC[C@@H](C)OC(=O)[C@H](C)N)c(C)c34)ccc2[nH]1` [BRIVANIB ALANINATE], the Kd (in experiment [1]; in experiment [2]; in experiment [3]; on Pyridoxal kinase; in experiment [4]; in experiment [5]) was > 30 µM (inactive) throughout. Moreover, the Kd in experiment [6] is > 30 µM (inactive).
For the molecule `CNC(=O)c1ccc(C)c(-n2c(C)cc(OCc3ccc(F)cc3F)c(Br)c2=O)c1` [PH-797804], the Kd (in experiment [1]; in experiment [2]; in experiment [3]; on Pyridoxal kinase; in experiment [4]; in experiment [5]) was > 30 µM (inactive) each time. Also, the Kd in experiment [6] was > 30 µM (inactive).
In the case of `CNC(=O)c1cc(Oc2ccc(NC(=O)Nc3ccc(Cl)c(C(F)(F)F)c3)c(F)c2)ccn1` [REGORAFENIB], the Kd (in experiment [1]; in experiment [2]; in experiment [3]; on Pyridoxal kinase; in experiment [4]; in experiment [5]) was > 30 µM (inactive) each time. Further, the Kd in experiment [6] is > 30 µM (inactive).
